The text below walks through data of publication PMC5725665, “Discovery of a Highly Selective Cell‐Active Inhibitor of the Histone Lysine Demethylases KDM2/7” (Angewandte Chemie (International Ed. in English), 2017).

pIC50: −log10 of the molar value. A value given as a limit tells only on which side of the number the result lay.

What all share (test): biochemical
In one test the target is T1, KDM7B PHD-finger domain (Homo sapiens, UniProt Q9UPP1).
T1 construct: gene PHF8; PHD-finger domain
Details: AlphaScreen peptide displacement assay, methyl-lysine reader domains. To be noted: read-out: IC50 reader domains, AlphaScreen. The method, then: (§1) S106 1.76 1.63 2.01 133 2.78 6.13 6.23 3.55 2.63 1.75 1.31 Table S-3: Summary of indoles tested. IC50 values correspond to KDM2A inhibition by AlphaScreen. 3.2 Selectivity-screening against other epigenetic writer and reader proteins Methyl-Lysine Reader domain assays. Fluorescence polarisation assays for methyl-lysine reader domains were carried out as described. AlphaScreen peptide displacement assays were performed according to manufacturer’s protocol (PerkinElmer, USA) with minor modifications. All reagents were diluted in 25 mM HEPES, 100 mM NaCl, 0.1 % BSA, pH 7.4 and 0.05 % CHAPS and allowed to equilibrate to room temperature prior to addition to plates. An 11-point 1:2.0

Another test deals with SPIN1 (Homo sapiens, UniProt Q9Y657). Details: AlphaScreen peptide displacement assay, methyl-lysine reader domains. The settings on record: read-out: IC50 reader domains, AlphaScreen. The protocol: as §1
Chain of SPIN1 (Q9Y657 whole entry, the tested form may be a part): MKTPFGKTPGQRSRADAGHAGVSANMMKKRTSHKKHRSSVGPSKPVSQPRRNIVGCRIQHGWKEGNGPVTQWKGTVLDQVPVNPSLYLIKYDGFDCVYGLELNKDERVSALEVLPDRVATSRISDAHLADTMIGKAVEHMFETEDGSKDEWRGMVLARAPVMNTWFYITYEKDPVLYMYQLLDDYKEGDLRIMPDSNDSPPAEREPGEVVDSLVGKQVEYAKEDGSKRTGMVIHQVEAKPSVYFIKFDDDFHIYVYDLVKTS
On the technique in general: Alpha assays give light when donor and acceptor beads are brought close together.

Another test concerns the target T2, JMJD1A (KDM3A) (Homo sapiens, UniProt Q9Y4C1).
T2 sequence (Q9Y4C1 1-1321): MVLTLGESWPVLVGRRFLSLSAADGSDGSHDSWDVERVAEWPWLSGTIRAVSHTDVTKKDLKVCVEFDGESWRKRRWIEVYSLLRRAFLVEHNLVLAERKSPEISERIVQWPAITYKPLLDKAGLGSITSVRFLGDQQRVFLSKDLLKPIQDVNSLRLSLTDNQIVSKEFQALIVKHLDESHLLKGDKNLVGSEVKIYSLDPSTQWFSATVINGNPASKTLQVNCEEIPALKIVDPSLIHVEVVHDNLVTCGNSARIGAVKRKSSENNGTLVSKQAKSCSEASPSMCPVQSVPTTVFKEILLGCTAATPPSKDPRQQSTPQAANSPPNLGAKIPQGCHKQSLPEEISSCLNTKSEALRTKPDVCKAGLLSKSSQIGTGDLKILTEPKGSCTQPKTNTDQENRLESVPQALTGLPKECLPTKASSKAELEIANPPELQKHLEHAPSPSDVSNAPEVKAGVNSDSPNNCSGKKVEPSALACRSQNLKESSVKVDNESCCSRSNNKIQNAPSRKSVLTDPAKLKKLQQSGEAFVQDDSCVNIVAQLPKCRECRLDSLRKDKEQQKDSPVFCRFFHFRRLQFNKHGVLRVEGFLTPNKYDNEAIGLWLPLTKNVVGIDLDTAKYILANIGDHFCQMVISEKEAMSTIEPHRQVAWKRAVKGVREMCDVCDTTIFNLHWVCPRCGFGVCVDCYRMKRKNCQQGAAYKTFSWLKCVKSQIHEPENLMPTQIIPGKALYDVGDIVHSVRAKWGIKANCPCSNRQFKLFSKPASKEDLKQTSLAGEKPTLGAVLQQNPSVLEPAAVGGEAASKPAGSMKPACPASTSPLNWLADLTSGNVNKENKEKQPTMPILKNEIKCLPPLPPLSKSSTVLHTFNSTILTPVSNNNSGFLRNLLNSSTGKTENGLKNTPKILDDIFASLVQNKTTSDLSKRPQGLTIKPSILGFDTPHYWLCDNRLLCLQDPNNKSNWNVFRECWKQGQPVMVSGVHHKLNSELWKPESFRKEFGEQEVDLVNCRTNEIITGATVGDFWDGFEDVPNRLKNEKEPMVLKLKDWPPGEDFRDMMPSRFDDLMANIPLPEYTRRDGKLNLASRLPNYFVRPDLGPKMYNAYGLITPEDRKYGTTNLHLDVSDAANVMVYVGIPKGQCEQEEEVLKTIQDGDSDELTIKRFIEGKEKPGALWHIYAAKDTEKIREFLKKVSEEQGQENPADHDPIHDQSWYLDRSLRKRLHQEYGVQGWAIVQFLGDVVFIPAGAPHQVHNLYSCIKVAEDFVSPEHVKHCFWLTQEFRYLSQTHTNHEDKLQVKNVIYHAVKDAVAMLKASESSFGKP
Details: AlphaScreen histone demethylase activity assay.

T1 sequence (Q9UPP1 whole entry, the tested form may be a part): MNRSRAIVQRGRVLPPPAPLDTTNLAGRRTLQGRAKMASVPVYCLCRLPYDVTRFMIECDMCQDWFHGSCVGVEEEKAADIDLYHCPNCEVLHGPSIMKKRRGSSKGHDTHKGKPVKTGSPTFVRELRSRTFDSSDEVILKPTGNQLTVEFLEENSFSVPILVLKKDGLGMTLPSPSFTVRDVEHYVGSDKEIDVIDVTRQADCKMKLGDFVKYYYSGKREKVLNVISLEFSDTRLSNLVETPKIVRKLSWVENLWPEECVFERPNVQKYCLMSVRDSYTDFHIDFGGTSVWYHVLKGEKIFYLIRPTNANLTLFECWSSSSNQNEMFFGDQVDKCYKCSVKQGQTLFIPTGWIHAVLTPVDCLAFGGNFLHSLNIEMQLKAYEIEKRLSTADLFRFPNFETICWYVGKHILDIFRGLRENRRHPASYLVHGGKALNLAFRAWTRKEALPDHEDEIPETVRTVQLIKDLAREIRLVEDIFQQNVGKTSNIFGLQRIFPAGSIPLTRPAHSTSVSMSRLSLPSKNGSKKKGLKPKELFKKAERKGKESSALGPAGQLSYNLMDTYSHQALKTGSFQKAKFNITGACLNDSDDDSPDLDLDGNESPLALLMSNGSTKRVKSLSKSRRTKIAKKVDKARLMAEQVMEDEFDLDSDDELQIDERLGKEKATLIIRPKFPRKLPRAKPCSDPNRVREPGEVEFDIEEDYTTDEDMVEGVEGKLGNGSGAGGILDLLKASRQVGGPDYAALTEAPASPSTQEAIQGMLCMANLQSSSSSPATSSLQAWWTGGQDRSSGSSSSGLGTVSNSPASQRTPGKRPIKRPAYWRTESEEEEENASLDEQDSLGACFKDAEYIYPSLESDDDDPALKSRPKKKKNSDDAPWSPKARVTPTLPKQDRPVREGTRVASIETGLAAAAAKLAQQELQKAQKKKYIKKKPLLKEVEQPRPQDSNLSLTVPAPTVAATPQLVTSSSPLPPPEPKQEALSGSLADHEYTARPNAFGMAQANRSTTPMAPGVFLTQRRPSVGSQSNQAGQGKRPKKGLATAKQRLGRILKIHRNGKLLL

What is called pIC50 is the IC50 on a negative log10 scale, so that one unit is a factor of ten. As usually defined, the inhibition is the drop in the measured response relative to a control, in per cent. Higher therefore signals strong suppression. In the case of `CC(=O)N1c2ccccc2[C@@](C#N)(c2ccccc2)[C@@H]1c1cncc(CCCCCCCN2CCCC2)c1` [(S,S)-6], the pIC50 at KDM7B PHD-finger domain and at SPIN1 was less than 4.70 in each case. The compound further had an inhibition at 100 µM at JMJD1A (KDM3A) of 35.4%. For the same compound, the IC50 at JMJD1A (KDM3A) (read-out: KDM3A pIC50 (converted)) is greater than 100 µM.
